Earlier results on 1 compound are cited in patent US20060292214A1, “Nanoparticulate acetaminophen formulations” (Elan Pharma International Limited, priority 2005, published 2006).

For the compound `CC(=O)Nc1ccc(O)cc1` [acetaminophen, 4′-hydroxyacetanilide], the solubility in water result is listed as “practically insoluble in water”.
